From PMC7367925, “The EU-ToxRisk method documentation, data processing and chemical testing pipeline for the regulatory use of new approach methods” (Archives of Toxicology, 2020)

Tests used:
[1] = molecular target: T1, Progesterone receptor (Homo sapiens, UniProt P06401); experiment: PR-anti CALUX; format: cell-based; details: 24 h exposure, lowest effect level PC20, reference agonist at EC50, means from 3 assay runs
T1 construct: host or cells: U-2 OS
T1 sequence (P06401 1-933): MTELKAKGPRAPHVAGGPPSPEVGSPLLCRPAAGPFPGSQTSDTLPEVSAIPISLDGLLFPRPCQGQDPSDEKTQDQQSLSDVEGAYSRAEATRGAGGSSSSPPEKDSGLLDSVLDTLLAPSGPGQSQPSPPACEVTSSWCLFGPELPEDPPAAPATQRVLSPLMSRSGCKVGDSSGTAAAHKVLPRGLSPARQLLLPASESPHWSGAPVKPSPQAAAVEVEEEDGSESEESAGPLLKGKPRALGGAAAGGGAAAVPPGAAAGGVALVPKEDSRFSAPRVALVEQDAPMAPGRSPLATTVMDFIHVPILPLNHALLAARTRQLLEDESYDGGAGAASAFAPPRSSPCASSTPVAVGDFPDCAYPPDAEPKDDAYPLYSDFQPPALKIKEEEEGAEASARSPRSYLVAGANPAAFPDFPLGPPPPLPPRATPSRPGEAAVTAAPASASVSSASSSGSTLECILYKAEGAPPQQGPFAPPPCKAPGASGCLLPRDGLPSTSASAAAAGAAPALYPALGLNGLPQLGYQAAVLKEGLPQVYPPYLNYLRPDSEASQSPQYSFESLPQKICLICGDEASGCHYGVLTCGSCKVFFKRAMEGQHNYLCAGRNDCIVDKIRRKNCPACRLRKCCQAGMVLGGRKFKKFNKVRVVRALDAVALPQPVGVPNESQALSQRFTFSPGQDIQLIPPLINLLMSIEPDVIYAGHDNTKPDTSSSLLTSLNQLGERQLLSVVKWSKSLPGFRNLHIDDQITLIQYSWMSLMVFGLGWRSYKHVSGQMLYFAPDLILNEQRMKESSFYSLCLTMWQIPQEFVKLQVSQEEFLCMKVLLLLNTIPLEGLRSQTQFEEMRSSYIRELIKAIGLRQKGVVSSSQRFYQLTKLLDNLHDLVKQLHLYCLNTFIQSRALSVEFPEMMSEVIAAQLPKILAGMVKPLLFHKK
Experimental: (§1) After 24 h, exposure medium was prepared. […] All samples were tested in triplicates. […] Fig. SM_4. […] Fig. SM_4.
(§2) Supplementary Material SM_4
(§3) Overview of CALUX assays.
(§4) This is defined as the concentration of test compound […]
(§5) for an antagonist assay is a PC20.
(§6) PC = positive control. FI = fold induction. PC10: concentration where test compound causes an activation equal to 10% of the maximum effect (positive control). PC20: concentration where test compound causes […]
(§7) FI=1.5: concentration where test
(§8) (A) exemplary graph of concentration- […]
(§9) receptor antagonism assay with PC20 as lowest-effect-level. (C) exemplary graph for assay with 1.5 fold inductionas lowest effect level. 9

[2] = molecular target: T2, Pregnane X receptor (Homo sapiens, UniProt O75469); experiment: PXR CALUX; format: cell-based; details: 24 h exposure, lowest effect level PC10, means from 3 assay runs
T2 construct: host or cells: U-2 OS
T2 sequence (O75469 1-434): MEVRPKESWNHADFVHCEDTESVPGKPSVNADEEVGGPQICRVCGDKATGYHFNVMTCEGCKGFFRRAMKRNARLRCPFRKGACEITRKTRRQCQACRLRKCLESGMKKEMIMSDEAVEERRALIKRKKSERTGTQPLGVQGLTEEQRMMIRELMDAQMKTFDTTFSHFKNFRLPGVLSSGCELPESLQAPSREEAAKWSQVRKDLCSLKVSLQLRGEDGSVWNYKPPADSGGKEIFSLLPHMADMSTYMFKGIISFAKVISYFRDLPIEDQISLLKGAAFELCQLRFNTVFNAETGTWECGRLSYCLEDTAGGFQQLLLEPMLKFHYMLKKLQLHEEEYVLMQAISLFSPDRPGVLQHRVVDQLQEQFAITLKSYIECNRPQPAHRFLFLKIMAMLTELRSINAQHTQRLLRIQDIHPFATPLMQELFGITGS
Experimental: as §1, §2, §3, §4, §5, §6, §7, §8, §9

[3] = molecular target: T3, PPARα (Homo sapiens, UniProt Q07869); experiment: PPARa CALUX; format: cell-based; details: 24 h exposure, lowest effect level PC10, means from 3 assay runs
T3 construct: host or cells: U-2 OS
T3 sequence (Q07869 1-468): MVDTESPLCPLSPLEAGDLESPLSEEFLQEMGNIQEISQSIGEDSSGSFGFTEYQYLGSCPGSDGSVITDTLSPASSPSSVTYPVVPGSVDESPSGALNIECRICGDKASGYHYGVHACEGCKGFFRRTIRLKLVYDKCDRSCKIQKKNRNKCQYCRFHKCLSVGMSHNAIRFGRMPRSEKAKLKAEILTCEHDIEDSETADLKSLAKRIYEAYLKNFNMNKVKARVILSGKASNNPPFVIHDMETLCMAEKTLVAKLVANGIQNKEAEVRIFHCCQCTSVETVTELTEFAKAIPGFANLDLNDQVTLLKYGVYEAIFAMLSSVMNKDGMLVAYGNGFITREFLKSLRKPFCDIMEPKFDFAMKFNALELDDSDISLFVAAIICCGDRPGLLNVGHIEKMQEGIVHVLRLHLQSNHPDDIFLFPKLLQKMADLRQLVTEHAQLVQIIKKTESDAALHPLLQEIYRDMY
Experimental: as §1
Cell line Endpoint effect Reference compound […]
PPARa CALUX Peroxisomeproliferator activated receptor agonists PC10 GW7647 […]
as §2, §3, §4, §5, §6, §7, §8, §9

[4] = test system: wnt/TCF pathway activation; experiment: TCF CALUX; format: cell-based, human; details: 24 h exposure, lowest effect level FI=1.5, means from 3 assay runs
[5] = test system: Endoplasmic reticulum stress; experiment: ESRE CALUX; format: cell-based, human; details: 24 h exposure, lowest effect level PC10, means from 3 assay runs
Experimental: as §1, §2, §3, §4, §5, §6, §7, §8, §9

[6] = test system: Transcription of p21 inhibitor of cell cycle progression; experiment: p21 CALUX; format: cell-based, human; details: 24 h exposure, lowest effect level PC10, means from 3 assay runs
Experimental: as §1, §2, §3, §4, §5, §6, §7, §8, §9

[7] = test system: AP1 pathway activation / cell cycle control; experiment: AP-1 CALUX; format: cell-based, human; details: 24 h exposure, lowest effect level PC10, means from 3 assay runs
Experimental: as §1, §2, §3, §4, §5, §6, §7, §8, §9

[8] = test system: Nrf2 (Oxidative stress); experiment: Nrf2 CALUX; format: cell-based, human; details: 24 h exposure, lowest effect level FI=1.5, means from 3 assay runs
Experimental: as §1, §2, §3, §4, §5, §6, §7, §8, §9

[9] = test system: p53-dependent pathway activation / genotoxicity; format: cell-based, human; details: 24 h exposure, lowest effect level FI=1.5, means from 3 assay runs
Experimental: as §1, §2, §3, §4, §5, §6, §7, §8, §9

[10] = parameters: method as in Sommar et al. 2000; details: KAW < 0.03 considered non-volatile; ref Sommar et al. 2000; cited from earlier work
[11] = test system: U-2 OS cells; experiment: Cytotox CALUX; details: 24 h exposure, lowest effect level PC20, means from 3 assay runs
[12] = test system: U-2 OS reporter cell lines battery; experiment: CALUX reporter gene assay battery as a whole; details: all CALUX assays, 13 concentrations, 24 h exposure

Row | Compound | PoD PR - anta [1] | PoD PXR - ago [2] | PoD PPARα - ago [3] | PoD TCF [4] | PoD ESRE [5] | PoD p21 [6] | PoD AP1 [7] | PoD Nrf2 [8] | PoD p53 [9] | air-water partition coefficient KAW [10] | PoD cytotoxicity [11] | response profile over the CALUX battery (in words) [12]
1 | CCCC(CCC)C(=O)O [Valproic acid] | 3.1 -log(M) | 4.0 -log(M) | 4.0 -log(M) | 4.0 -log(M) | 4.0 -log(M) | 3.2 -log(M) |  |  |  |  |  | 
2 | [Cl][Hg][Cl] [Mercury chloride] |  |  |  |  |  |  | 5.8 -log(M) | 5.5 -log(M) | 5.7 -log(M) | 0.02 | 4.7 -log(M) | only activated stress pathway related assays
